The results in this text go back to patent US12264185B2, “Stabilized BCL9 peptides for treatment of aberrant Wnt signaling” (WntRx Pharmaceuticals Inc., priority 2015, dated 2025).

One data set relates to NCI-H1299-Luc cells. Description: NCI-H1299-Luc orthotopic model in balb/c nude mice. Type of data set: in vivo. The note with it: 15 mg/kg i.v. daily, 10 days. From the text: Orthotopic mouse models are useful to visualize the effect of an anti-tumor compound on a tumor implanted in a mouse and to assess the effect of the compound on tumor metastasis. An orthotropic model utilizing the NCI-H1299-Luc cell line (non-small-cell lung carcinoma cell line expressing luciferase) was selected for this experiment. Upon uptake of luciferin substrate, these cells are capable of producing bioluminescence. Proliferation of the NCI-H1299 cell line is dependent on Pygopus (Pygo) 2/β-catenin transcription activity, in which TCF-1 transcription factors (BCL9, β-cat and Pygo) form a transcription complex to initiate transcription.
The mice were about 5 weeks of age. NCI-H1299-Luc cells (5×10^6) in 50 μL in PBS were injected into each mouse lung with a syringe.
The bioluminescence intensity (total Flux [p/s]) of each mouse was measured periodically throughout the study according to manufacturer protocol (Xenogen ivis imaging system, PerkinElmer).

Another data set is described as follows: in vivo. The note with it: male, ICR, mouse.
The next data set deals with PI3K/AKT/FOXO. Description: PI3K/AKT/FOXO transcription assay (TREx FOXO3-DBE-bla HeLa cell line). Type of data set: cell-based. From the text:
(§1) In these assays, the trifluoroacetic salt form of WX-024 was used.

The test system of the next data set is CT26 cells. Description: cells. As to the method:
CT26 cells were grown in F-bottom plates over 5 days. […] CellTiterGlo (Promega) cell viability assay. […] Doxorubicin is a known inhibitor of cell growth and was included as a control.

The nature of data set [1]: Preclinical summary of multiple animal models. Type of data set: in vivo. From the text:
The in vivo efficacy of WX-024 was confirmed in multiple animal models.

Another data set has as its system TGF-beta. Description: TGF-beta transcription assay (SBE-bla HEK 293T cell line). It counts as cell-based.
From the text: as §1

The target of another data set is T1, β-catenin (Homo sapiens, UniProt P35222).
T1 sequence (P35222 1-781): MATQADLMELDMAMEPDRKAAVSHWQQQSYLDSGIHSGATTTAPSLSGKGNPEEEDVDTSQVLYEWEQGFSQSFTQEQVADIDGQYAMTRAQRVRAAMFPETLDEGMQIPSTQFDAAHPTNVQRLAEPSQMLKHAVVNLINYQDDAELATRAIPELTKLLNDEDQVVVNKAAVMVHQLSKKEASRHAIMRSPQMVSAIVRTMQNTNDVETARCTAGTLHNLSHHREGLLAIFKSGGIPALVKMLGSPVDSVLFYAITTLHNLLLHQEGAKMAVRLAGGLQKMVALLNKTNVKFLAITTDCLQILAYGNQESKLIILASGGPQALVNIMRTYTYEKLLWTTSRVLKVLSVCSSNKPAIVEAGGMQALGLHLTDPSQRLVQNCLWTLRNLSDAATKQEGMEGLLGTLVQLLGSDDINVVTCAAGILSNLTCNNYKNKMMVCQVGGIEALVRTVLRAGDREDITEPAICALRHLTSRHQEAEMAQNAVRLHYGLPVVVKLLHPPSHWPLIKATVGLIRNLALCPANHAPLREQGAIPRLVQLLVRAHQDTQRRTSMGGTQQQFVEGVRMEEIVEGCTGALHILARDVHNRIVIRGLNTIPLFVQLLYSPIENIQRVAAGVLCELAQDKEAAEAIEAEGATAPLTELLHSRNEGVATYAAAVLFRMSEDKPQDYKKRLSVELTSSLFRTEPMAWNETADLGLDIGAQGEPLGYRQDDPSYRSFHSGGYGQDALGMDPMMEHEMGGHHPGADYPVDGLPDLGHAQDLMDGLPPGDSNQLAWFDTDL
Description: HTRF binding assay. The following applies: WX-024 coupled to biotin. From the text:
HTRF assays provide a means of assaying protein-protein interactions in a high-throughput format, as discussed in Degorce et al., Curr Chemical Genom. 3, 22-32 (2009). In an HTRF assay to measure a protein-protein interaction, binding of 2 proteins brings an HTRF donor and acceptor fluorophore into close proximity and generates the fluorescence energy transfer (FRET) signal. Each protein of the interaction is associated with the donor or the acceptor by an antibody reaction.
FIG. 6A provides a schematic to depict the basis of the HTRF assay. In the HTRF assay for β-catenin (Cisbio), β-catenin is bound by an XL665-coupled antibody (ab) against β-catenin. See Degorce (2009). β-catenin bound to an XL665-coupled antibody can interact with its binding partners, such as BCL9 or BCL9 peptides.
SA is a high-affinity binding partner to biotin and will tightly bind the SA-europium cryptate to the biotinylated stabilized polypeptides. Europium cryptate is an energy donor for an HTRF reaction. When not closely bound, there is no energy transfer between europium cryptate and XL665.
Histidine-tagged β-catenin, BCL9 peptide labeled with biotin, europium (Eu) labeled monoclonal antibody for histidine tag, and SA-XL665 were used in the HTRF assay. […] The reaction was incubated at room temperature for 1 hour and then the plate was read.
(In general: Time-resolved FRET reads energy transfer from a long-lived donor to a nearby acceptor.)

The structures appear in SMILES notation. Like-named read-outs stand apart in the source and are kept apart here.

Description for in vivo: The tail vein was used for i.v. injections. […] Following injections, blood samples were obtained via the retro-orbital vein at 5 min, 1, 2, 4, 6, 8, 12, and 24 hours postdose. Plasma was obtained from the blood samples following mixing with sodium heparin and centrifugation.
LC analysis was done using an Agilent 100 HPLC. MS analysis was done using an AB Sciex API 4000. Calibration standards were prepared by serial dilution.
The maximum observed concentration (Cmax), terminal half-life (T1/2), total body clearance (CL), volume of distribution (Vz), area under the curve from the time of dosing to the last measurable concentration (AUC0-t), area under the curve from the time of dosing extrapolated to infinity (AUC0-inf), and bioavailability were calculated using noncompartmental analysis modules in the FDA-certified pharmacokinetic program WinNonlin Professional v5.2 (Pharsight).
Briefly, the mice were administered 1 mg/kg or 5 mg/kg intravenously, or 5 mg/kg intraperitoneally. Blood samples were collected at 15 min, 1, 2, 3, 6, 8, 12, and 24 hours post administration.

Take `CC[C@H](C)[C@@H]1NC(=O)[C@@](C)(NC(=O)[C@H](CCCNC(=N)N)NC(=O)[C@H](CC(C)C)NC(=O)[C@@H](NC(=O)[C@H](CCC(N)=O)NC(=O)[C@H](CC(C)C)NC(C)=O)[C@@H](C)O)CCCC=CCCC[C@@](C)(C(=O)N[C@@H](CC(C)C)C(=O)N[C@@H](Cc2ccc3ccccc3c2)C(N)=O)NC(=O)[C@H](CCCNC(=N)N)NC(=O)[C@H](CCC(N)=O)NC1=O` [WX-024, LQTLRXaa1IQRXaa2L]: in the data set with NCI-H1299-Luc cells, the “tumor formation and growth (bioluminescence total flux)” value is “almost completely blocked tumor formation and growth in vivo”. The half-life (usually the time in which the quantity being followed falls by half) in “in vivo” was in the range of 2.4 to 2.5 h. The IC50 in the data set on PI3K/AKT/FOXO (Example 4.5, read-out: IC50, PI3K/AKT/FOXO transcription assay) is more than 10000 nM; in the data set with PI3K/AKT/FOXO (TREx FOXO3-DBE-bla HeLa, Insulin stimulation, trifluoroacetic salt form, read-out: IC50 (nM), PI3K/AKT/FOXO3 pathway) it was more than 1000 nM; with PI3K/AKT/FOXO (summary, Example 6, read-out: IC50, PI3K/AKT/FOXO3 reporter assay) it was more than 100 nM; with CT26 cells, 1.75 µM; in the data set on TGF-beta (Example 4.5, read-out: IC50, TGF-beta transcription assay), more than 10000 nM; in the data set with TGF-beta (SBE-bla HEK 293T, TGF-beta 1 stimulation, trifluoroacetic salt form, read-out: IC50 (nM), TGF-beta pathway), more than 3160 nM. Besides, the IC50 in the data set with TGF-beta (summary, Example 6, read-out: IC50, TGF-0 reporter assay) is more than 100 nM. In addition, in data set [1] (animals chronically dosed), the drug-related toxicity entry is “no particular drug-related toxicity was observed”. Moreover, the “average tumor growth inhibition rate” value in data set [1] (multiple animal models, administered for 3-6 weeks) is on record as 70-80%. Moreover, at β-catenin, the affinity, expressed as Kd, was 0.00421 µM.
